Assay results reported in US20030232999A1, “POLYMETHINE COMPOUND AND NEAR-INFRARED ABSORBING MATERIAL COMPRISING SAME” (priority 2002, published 2003).

Assay: Solubility in solvents (stated in words)
Type: physicochemical
Settings: statement in words

solubility in solvents	Compound
low	COCCN1/C(=C\C=C2/CCCC(/C=C/C3=[N+](CCOC)c4ccccc4C3(C)C)=C2Cl)C(C)(C)c2ccccc21 [compound A]
low	CCN1/C(=C\C=C2/CCCC(/C=C/C3=[N+](CC)c4ccc(OC)cc4C3(C)C)=C2Cl)C(C)(C)c2cc(OC)ccc21.[I-] [compound B]
